Among the data in ChEMBL document CHEMBL3045261, “Study on the quantitative structuretoxicity relationships of benzoic acid derivatives in rats via oral LD50” (Med Chem Res, 2009) are pLD50 values, retold here.

The data set deals with Rattus norvegicus. Description: Toxicity in po dosed Rattus norvegicus (rat). The conditions noted are these: in vivo.
Consider `O=C(O)c1ccccc1C(=O)c1ccccc1` [2-BENZOYLBENZOIC ACID], for which the pLD50 turned out to be 8.43. For `O=C(O)c1ccccc1OP(=O)(O)O` [FOSFOSAL] the value was 7.01; for `Nc1cc(Cl)cc(C(=O)O)c1Cl` [CHLORAMBEN], 8.16. In the case of `Nc1ccc(O)c(C(=O)O)c1` [MESALAMINE] it was 7.94. With `Nc1ccccc1C(=O)O` [ANTHRANILIC ACID], the pLD50 was 8.6. In turn, `COC(=O)c1ccc(OC)cc1` [METHYL 4-METHOXYBENZOATE] gave a pLD50 of 8.52. `Cc1ccc(OC(=O)c2ccccc2O)cc1` had a pLD50 of 7.17. For `O=C(O)c1ccc(O)cc1` [PARABEN] the value was 9.21; for `O=C(O)c1c(Cl)ccc(Cl)c1O`, 7.35. `O=C(O)c1cc([N+](=O)[O-])cc([N+](=O)[O-])c1O` [3,5-DINITROSALICYLIC ACID] gave a pLD50 of 6.76. In the case of `O=C(O)c1ccccc1/N=C/c1ccccc1` [N-BENZYLIDENEANTHRANILIC ACID] it was 6.21; in that of `COC(=O)c1cc([N+](=O)[O-])ccc1Cl`, 8.59.

As for `CCOC(=O)c1ccccc1O` [ETHYL SALICYLATE], the pLD50 is given as 7.191. The compound `COC(=O)c1ccccc1OC` [METHYL 2-METHOXYBENZOATE] returned a pLD50 of 8.241. Consider `COC(=O)c1ccccc1O` [METHYL SALICYLATE], for which the pLD50 stood at 6.79. For `O=C(OCC1CO1)c1ccccc1` (centres undefined) [BENZOIC ACID 2,3-EPOXYPROPYL ESTER] the value was 7.25; for `O=C(O)c1ccccc1O` [SALICYLIC ACID], 6.791. In the case of `CCCOC(=O)c1cc(O)c(O)c(O)c1` [PROPYL GALLATE] it was 7.65; in that of `O=C(O)Cc1ccccc1C(=O)O` [2-CARBOXYBENZENEACETIC ACID], 6.21; in that of `COC(=O)c1ccccc1OC(N)=O` [2-(AMINOCARBONYL)OXYBENZOIC ACID METHYL ESTER], 7.82. For `O=C(OCc1ccccc1)c1ccccc1O` [BENZYL SALICYLATE] the value was 7.71.

In turn, `Nc1c(Cl)cc(Cl)cc1C(=O)O` [3,5-DICHLOROANTHRANILIC ACID] displayed a pLD50 of 8.32. With `C=COC(=O)c1ccccc1` [BENZOIC ACID VINYL ESTER], the pLD50 is listed as 8.09. `CC(C)COC(=O)c1ccccc1O` registered a pLD50 of 7.35. In the case of `CC(=O)Oc1ccccc1C(=O)O` [ASPIRIN] it was 5.3; in that of `Cc1cccc(C(=O)O)c1O` [HYDROXYTOLUIC ACID], 6.1; in that of `O=C(Oc1ccccc1)c1ccccc1O` [PHENYL SALICYLATE], 8.01. For `O=C(Cl)c1ccc([N+](=O)[O-])cc1` [4-NITROBENZOYL CHLORIDE] the value was 8.63; for `CC(C)CCOC(=O)c1ccccc1` [BENZOIC ACID 1-(3-METHYL)BUTYL ESTER], 8.75; for `CCCCOC(=O)c1ccccc1N` [BUTYL 2-AMINOBENZOATE], 8.52. `CC(C)COC(=O)c1ccccc1` [BENZOIC ACID 2-METHYLPROPYL ESTER] returned a pLD50 of 8.63. On to `O=C(O)c1ccccc1` [BENZOIC ACID], for which the pLD50 stood at 7.44. In the case of `Nc1ccc(C(=O)O)cc1` [AMINOBENZOIC ACID] it was 8.7; in that of `Cc1ccc(OC(=O)c2ccccc2)cc1` [BENZOIC ACID 4-METHYLPHENYL ESTER], 7.88; in that of `O=C(O)c1cc(S(=O)(=O)O)ccc1O` [SULFOSALICYLIC], 7.52. In the case of `CNc1ccccc1C(=O)OC` [2-METHYLAMINOBENZOIC ACID METHYL ESTER] it was 8.13.

Compound `COc1c(Cl)ccc(Cl)c1C(=O)O` [3,6 DICHLOROMETHOXYBENZOIC ACID] gave a pLD50 of 6.95. Regarding `CCOC(=O)c1ccc([N+](=O)[O-])cc1` [4-NITROBENZOIC ACID ETHYL ESTER], the pLD50 worked out at 7.89. In the case of `CC(C)OC(=O)c1ccccc1` [BENZOIC ACID 1-METHYLETHYL ESTER] it was 8.22; in that of `CCOC(=O)c1ccccc1` [ETHYL BENZOATE], 7.65; in that of `O=C(O)c1cc(Cl)ccc1O` [5-CHLOROSALICYLIC ACID], 5.52. In the case of `CC(C)CCOC(=O)c1ccccc1O` it was 8.1. In the case of `O=C(O)c1ccc(Cl)c([N+](=O)[O-])c1` [4-CHLORO-3-NITROBENZOIC ACID] it was 8.06. As for `COC(=O)c1cccc(C)c1O`, the pLD50 is recorded as 8.25. In the case of `O=C(Oc1cccc(O)c1)c1ccccc1` [BENZOIC ACID 3-HYDROXYPHENYL ESTER] it was 6.68. In the case of `COc1cccc(OC)c1C(=O)O` [2,6-DIMETHOXYBENZOIC ACID] it was 6.21; in that of `O=C(O)c1c(Cl)ccc(Cl)c1Cl` [2,3,6-TRICHLOROBENZOIC ACID], 6.48. For the compound `O=C(Cl)c1ccccc1` [BENZOYL CHLORIDE], the pLD50 is given as 7.55. Consider `CCCCCCOC(=O)c1ccccc1` [BENZOIC ACID HEXYL ESTER], for which the pLD50 is on record as 9.42.

Compound `CC(C)=CCOC(=O)c1ccccc1` [BENZOIC ACID 3-METHYL-2-BUTENYL ESTER] had a pLD50 of 8.46.

As for `CCOC(=O)c1ccc(OC)cc1` [4-METHOXYBENZOIC ACID ETHYL ESTER], the pLD50 is recorded as 7.62. `CCOC(=O)c1ccc(N)cc1` [BENZOCAINE] gave a pLD50 of 8.02. For `NC(=O)c1ccccc1O` [SALICYLAMIDE] the value was 6.89. In the case of `O=C(O)c1ccc([N+](=O)[O-])cc1` [4-NITROBENZOIC ACID] it was 7.58.
